The values that follow come from the kinase profiling compilation of Christmann-Franck et al. (2016).

Some targets named below: CDK1 CCNB1 (human) (UniProt P06493+P14635); CDK4 CCND1 (human) (UniProt P24385+P11802); CDK2 CCNA2 (human) (UniProt P24941+P20248); CDK5 CDK5R1 p35 (human) (UniProt Q00535+Q15078); CDK3 CCNE1 (human) (UniProt Q00526+P24864); CDK5 CDK5R1 p25 (human) (UniProt Q00535+Q15078); CDK6 CCND1 (human) (UniProt Q00534+P24385); DYRK1B (human) (UniProt Q9Y463); PRKCH (human) (UniProt P24723); STK33 (human) (UniProt Q9BYT3); CDK9 CCNT1 (human) (UniProt P50750+O60563); LTK (human) (UniProt P29376); MAP3K7 TAB1 (human) (UniProt O43318+Q15750); CDK4 CCND3 (human) (UniProt P30281+P11802); CDK2 CCNE1 (human) (UniProt P24941+P24864); CDK7 CCNH MNAT1 (human) (UniProt P50613+P51948+P51946); CDK9 CCNK (human) (UniProt O75909+P50750); CDK1 CCNA2 (human) (UniProt P06493+P20248); CDK6 CCND3 (human) (UniProt P30281+Q00534); NEK7 (human) (UniProt Q8TDX7); NEK6 (human) (UniProt Q9HC98); AURKC (human) (UniProt Q9UQB9); FLT3 (human) (UniProt P36888); AURKB (human) (UniProt Q96GD4).

Holding throughout (assay): radiometric filter-binding kinase assay, Kinase HotSpot
Holding throughout (settings): compound 0.5 µM; ATP 10 µM

In test [1] the test system is ARAF (human), P10398 [Y301D/Y302D].
Chain of ARAF (human), P10398 [Y301D/Y302D] (P10398 whole entry Y301D/Y302D, looked up): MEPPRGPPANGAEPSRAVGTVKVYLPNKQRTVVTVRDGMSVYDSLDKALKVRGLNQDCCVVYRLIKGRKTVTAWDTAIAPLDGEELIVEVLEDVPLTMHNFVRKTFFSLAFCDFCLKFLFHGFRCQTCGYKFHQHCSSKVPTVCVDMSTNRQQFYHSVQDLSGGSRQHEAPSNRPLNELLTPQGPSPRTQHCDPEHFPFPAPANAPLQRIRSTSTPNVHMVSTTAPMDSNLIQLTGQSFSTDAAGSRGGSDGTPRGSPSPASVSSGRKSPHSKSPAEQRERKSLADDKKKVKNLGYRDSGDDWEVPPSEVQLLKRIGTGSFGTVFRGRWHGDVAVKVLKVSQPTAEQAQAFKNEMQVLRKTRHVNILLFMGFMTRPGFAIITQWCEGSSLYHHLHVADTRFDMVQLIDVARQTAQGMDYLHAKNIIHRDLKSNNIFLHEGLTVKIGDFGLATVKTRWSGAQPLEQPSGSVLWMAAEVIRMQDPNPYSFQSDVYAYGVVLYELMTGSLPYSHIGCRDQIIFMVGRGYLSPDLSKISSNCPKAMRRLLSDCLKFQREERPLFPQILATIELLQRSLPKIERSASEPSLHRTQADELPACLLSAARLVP

Chain of CDK9 CCNK (human) (O75909 whole entry, looked up): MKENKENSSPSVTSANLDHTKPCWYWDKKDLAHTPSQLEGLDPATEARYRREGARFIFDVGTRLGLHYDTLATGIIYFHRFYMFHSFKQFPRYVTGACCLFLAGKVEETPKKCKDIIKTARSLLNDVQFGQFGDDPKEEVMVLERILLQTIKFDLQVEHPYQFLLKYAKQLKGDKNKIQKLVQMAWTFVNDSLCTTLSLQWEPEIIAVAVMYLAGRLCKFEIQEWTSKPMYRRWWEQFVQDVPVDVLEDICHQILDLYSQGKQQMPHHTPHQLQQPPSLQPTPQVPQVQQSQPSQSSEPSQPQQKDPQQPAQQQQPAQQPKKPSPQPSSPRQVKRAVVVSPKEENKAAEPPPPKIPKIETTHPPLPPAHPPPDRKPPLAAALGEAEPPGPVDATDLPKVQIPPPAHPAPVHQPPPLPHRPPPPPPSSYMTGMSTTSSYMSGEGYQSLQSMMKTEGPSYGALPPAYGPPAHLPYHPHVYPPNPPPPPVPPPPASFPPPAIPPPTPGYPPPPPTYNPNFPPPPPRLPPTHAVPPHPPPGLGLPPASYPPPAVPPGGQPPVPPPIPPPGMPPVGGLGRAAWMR
Chain of CDK9 CCNK (human) (P50750 whole entry, looked up): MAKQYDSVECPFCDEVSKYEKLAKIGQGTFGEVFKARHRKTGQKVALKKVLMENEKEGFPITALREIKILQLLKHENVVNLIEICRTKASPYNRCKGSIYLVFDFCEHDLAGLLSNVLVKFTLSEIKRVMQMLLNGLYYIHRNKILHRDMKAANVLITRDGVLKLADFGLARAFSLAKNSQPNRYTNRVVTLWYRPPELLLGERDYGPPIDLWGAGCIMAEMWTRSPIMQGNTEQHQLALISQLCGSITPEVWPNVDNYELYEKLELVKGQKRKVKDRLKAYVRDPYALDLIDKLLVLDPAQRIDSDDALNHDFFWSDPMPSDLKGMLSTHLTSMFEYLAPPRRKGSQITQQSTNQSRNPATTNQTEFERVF
Chain of DYRK1B (human) (Q9Y463 whole entry, looked up): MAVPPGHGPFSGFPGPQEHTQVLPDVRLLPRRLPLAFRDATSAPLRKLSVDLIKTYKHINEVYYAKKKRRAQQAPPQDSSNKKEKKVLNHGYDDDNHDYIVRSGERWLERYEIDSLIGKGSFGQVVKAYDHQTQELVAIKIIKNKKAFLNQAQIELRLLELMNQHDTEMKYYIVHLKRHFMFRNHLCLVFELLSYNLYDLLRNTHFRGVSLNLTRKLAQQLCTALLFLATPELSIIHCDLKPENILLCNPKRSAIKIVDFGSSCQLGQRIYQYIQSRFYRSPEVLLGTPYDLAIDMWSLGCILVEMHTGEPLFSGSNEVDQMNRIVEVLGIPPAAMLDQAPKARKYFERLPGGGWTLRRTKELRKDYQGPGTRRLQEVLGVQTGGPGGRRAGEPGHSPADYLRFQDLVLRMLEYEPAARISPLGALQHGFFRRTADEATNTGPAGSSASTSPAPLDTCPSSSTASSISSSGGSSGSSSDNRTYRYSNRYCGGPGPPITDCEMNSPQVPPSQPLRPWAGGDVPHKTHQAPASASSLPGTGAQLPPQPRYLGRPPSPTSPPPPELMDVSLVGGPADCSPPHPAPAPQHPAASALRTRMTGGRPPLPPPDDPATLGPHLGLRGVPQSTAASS
Chain of STK33 (human) (Q9BYT3 whole entry, looked up): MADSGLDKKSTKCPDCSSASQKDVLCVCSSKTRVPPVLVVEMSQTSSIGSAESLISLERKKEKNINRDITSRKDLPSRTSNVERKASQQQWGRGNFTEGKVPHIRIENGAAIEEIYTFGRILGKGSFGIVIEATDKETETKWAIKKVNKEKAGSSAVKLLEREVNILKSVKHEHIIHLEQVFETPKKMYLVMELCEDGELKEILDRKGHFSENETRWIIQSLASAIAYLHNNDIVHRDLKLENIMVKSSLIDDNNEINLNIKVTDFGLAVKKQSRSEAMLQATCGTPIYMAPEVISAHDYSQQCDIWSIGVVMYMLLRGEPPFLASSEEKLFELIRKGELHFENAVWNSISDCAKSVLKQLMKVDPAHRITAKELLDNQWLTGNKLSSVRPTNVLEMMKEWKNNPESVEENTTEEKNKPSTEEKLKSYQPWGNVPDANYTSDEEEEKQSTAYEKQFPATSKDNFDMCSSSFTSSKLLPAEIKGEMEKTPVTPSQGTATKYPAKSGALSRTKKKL
Chain of CDK6 CCND1 (human) (P24385 whole entry, looked up): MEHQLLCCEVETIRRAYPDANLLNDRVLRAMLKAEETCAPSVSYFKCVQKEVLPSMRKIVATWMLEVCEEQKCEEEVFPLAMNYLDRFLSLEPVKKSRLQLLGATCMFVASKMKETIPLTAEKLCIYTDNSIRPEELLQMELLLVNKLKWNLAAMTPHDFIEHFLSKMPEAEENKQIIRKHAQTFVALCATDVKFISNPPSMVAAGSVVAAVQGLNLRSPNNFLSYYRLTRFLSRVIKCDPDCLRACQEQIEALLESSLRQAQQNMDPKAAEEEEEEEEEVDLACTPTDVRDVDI
Chain of CDK6 CCND1 (human) (Q00534 whole entry, looked up): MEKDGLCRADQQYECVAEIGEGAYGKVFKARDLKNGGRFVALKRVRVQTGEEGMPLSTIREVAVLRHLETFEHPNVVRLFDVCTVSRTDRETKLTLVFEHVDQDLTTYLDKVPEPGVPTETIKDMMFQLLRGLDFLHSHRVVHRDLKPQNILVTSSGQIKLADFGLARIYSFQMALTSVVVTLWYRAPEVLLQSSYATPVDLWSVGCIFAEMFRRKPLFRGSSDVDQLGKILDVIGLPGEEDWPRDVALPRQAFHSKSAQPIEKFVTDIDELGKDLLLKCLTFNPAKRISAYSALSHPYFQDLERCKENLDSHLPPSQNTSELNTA
Chain of CDK9 CCNT1 (human) (O60563 whole entry, looked up): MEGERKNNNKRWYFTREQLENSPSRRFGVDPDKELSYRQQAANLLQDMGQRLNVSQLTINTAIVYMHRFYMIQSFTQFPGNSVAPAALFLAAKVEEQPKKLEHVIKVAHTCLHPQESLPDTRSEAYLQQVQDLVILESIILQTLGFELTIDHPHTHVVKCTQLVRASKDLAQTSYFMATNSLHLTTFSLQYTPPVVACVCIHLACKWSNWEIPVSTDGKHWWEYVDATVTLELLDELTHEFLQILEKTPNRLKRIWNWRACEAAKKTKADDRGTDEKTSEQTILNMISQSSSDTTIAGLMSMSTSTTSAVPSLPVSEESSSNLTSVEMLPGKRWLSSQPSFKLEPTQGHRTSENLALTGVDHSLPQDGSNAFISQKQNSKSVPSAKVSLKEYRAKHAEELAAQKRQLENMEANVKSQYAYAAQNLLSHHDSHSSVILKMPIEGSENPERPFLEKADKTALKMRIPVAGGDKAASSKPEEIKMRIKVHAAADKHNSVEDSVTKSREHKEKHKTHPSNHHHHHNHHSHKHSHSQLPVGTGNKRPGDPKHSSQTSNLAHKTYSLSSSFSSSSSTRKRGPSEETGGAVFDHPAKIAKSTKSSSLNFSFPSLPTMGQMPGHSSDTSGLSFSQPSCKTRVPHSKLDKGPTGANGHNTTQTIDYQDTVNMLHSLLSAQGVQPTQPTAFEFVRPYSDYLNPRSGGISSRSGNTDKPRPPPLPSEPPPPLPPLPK
Chain of CDK9 CCNT1 (human) (P50750 whole entry, looked up): as the sequence (P50750 whole entry, looked up) above
Chain of PRKCH (human) (P24723 whole entry, looked up): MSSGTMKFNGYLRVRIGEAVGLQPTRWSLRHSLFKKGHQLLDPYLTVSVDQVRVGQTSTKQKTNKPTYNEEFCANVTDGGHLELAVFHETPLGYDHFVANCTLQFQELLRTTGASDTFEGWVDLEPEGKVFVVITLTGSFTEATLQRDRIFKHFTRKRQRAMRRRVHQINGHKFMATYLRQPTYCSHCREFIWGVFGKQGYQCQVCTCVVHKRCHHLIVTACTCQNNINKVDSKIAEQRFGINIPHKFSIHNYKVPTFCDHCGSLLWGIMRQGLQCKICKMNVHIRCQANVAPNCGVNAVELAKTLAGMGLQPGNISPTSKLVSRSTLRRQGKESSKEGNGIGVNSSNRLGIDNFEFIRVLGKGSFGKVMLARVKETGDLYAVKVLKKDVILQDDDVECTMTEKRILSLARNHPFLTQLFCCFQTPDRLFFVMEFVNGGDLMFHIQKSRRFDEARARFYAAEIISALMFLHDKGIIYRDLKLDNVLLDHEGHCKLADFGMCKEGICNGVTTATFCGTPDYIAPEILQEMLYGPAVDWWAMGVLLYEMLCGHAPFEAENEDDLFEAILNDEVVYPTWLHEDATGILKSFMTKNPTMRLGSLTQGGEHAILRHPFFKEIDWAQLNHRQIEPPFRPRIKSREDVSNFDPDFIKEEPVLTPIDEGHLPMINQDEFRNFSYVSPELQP

By residual activity is commonly meant the signal under treatment as a percentage of the control signal. For `CCOc1nc(NC(=O)Cc2cc(OC)ccc2OC)cc(N)c1C#N`, the residual activity at CDK1 CCNB1 (human) came to 108%; at CDK4 CCND1 (human), 97.6%; at CDK2 CCNA2 (human), 104%; at CDK5 CDK5R1 p35 (human), 105%; on CDK3 CCNE1 (human) it was 97.7%; at CDK5 CDK5R1 p25 (human), 96.8%. The residual activity on CDK6 CCND1 (human) came out at 95.2%; on DYRK1B (human), 99.2%; at PRKCH (human), 94.3%; at STK33 (human) it was 97.7%; on CDK9 CCNT1 (human), 100%; at LTK (human), 97.3%. For the same compound, the residual activity on MAP3K7 TAB1 (human) was 96.6%; on CDK4 CCND3 (human), 95.2%; on CDK2 CCNE1 (human), 88.9%; at CDK7 CCNH MNAT1 (human), 103%; on CDK9 CCNK (human) it was 89.2%; on CDK1 CCNA2 (human), 92.2%. Also, the residual activity on CDK6 CCND3 (human) is 98.6%.
On to `NC(=O)c1ccc(-c2nc(-c3ccccn3)c(-c3ccc4c(c3)OCCO4)[nH]2)cc1`, for which the residual activity on CDK1 CCNB1 (human) came to 83.9%; at CDK4 CCND1 (human) it was 84%; at CDK2 CCNA2 (human), 95%; on CDK5 CDK5R1 p35 (human) it was 98%; on CDK3 CCNE1 (human), 99.4%; on CDK5 CDK5R1 p25 (human) it was 91%. Further, the residual activity at CDK6 CCND1 (human) stood at 106%; at DYRK1B (human), 100%; on PRKCH (human), 83.3%; on STK33 (human) it was 98.3%; at CDK9 CCNT1 (human) it was 96.8%; on LTK (human), 93.5%. Also, the residual activity at MAP3K7 TAB1 (human) stood at 104%; at CDK4 CCND3 (human), 94.1%; at CDK2 CCNE1 (human), 93.5%; on CDK7 CCNH MNAT1 (human), 97.6%; on CDK9 CCNK (human), 97.1%; at CDK1 CCNA2 (human), 97.1%. The residual activity on CDK6 CCND3 (human) was determined as 104%.
On to `O=C1Nc2ccc3ncsc3c2/C1=C/c1c[nH]cn1`, for which the residual activity at NEK7 (human) came out at 79.6%; at DYRK1B (human) it was 11.3%; on NEK6 (human), 93.2%; on PRKCH (human) it was 41.2%; at STK33 (human) it was 35.7%; at LTK (human), 83%.
In the case of `Cc1cc(Nc2cc(N3CCN(C)CC3)nc(Sc3ccc(NC(=O)C4CC4)cc3)n2)[nH]n1`, the residual activity on CDK1 CCNB1 (human) turned out to be 102%; at CDK4 CCND1 (human), 97.4%; at CDK2 CCNA2 (human), 87.8%; on CDK5 CDK5R1 p35 (human) it was 100%; on CDK3 CCNE1 (human), 95.3%; at CDK5 CDK5R1 p25 (human), 93.8%. The residual activity stood at 95.2% at CDK6 CCND1 (human); 98.8% on DYRK1B (human); 40.4% at AURKC (human); 111% at PRKCH (human); 90.1% on STK33 (human); 6.67% on FLT3 (human). Further, the residual activity at CDK9 CCNT1 (human) is 93.1%; on LTK (human) it was 84.2%; on MAP3K7 TAB1 (human) it was 90.7%; at CDK4 CCND3 (human), 99.2%; on CDK2 CCNE1 (human) it was 94.4%; at AURKB (human), 4.89%. For the same compound, the residual activity at CDK7 CCNH MNAT1 (human) was determined as 101%; at CDK9 CCNK (human), 102%; at CDK1 CCNA2 (human), 99.1%; at CDK6 CCND3 (human), 121%.
Consider `COc1cc2ncc(-c3ccccc3)nc2cc1OC`, for which, in test [1], the residual activity is 87.6%.
On the same count and under the same terms, as for `N#CC(C#N)=C(N)/C(C#N)=C/c1ccc(O)cc1`, the figure is 90.8%.
Still for that read-out and setting: the result for `O=C1NC(=O)/C(=C\c2ccc3nccnc3c2)S1` reads 103%.
On the same count and under the same terms, the result for `O=S(=O)(NCCNC/C=C/c1ccc(Br)cc1)c1cccc2cnccc12` reads 95.8%.
On to `COC(=O)[C@]1(O)C[C@@H]2O[C@@]1(C)n1c3ccccc3c3c4c(c5c6ccccc6n2c5c31)C(=O)NC4`, for which the residual activity at DYRK1B (human) stood at 3.88%; on PRKCH (human), 20.5%; on STK33 (human), 12.5%; at LTK (human) it was 9.78%.
On to `COc1cc2c(Nc3ccc(Br)cc3F)ncnc2cc1OCC1CCN(C)CC1`, for which, in [1], the residual activity is 84%.
Take `Cc1[nH]c(/C=C2\C(=O)Nc3ccc(S(=O)(=O)N(C)c4cccc(Cl)c4)cc32)c(C)c1C(=O)N1CCN(C)CC1`: in test [1], the residual activity amounted to 120%.
The same measure, in the same setting: as for `O=C1C(Cl)=C(N2C(=O)CCC2=O)C(=O)c2ccccc21`, the figure is 105%; as for `Cc1ccc(NC2=CC(=O)c3sc(C)nc3C2=O)cc1`, 127%.
Still for that read-out and setting: as for `CCn1cnc2c(Nc3cccc(Cl)c3)nc(N[C@@H]3CCCC[C@@H]3N)nc21`, the figure is 116%.
Still for that read-out and setting: as for `CCCCc1c(-c2ccc(O)cc2)[nH]c2nccnc12`, the figure is 92.6%; as for `O=C1Nc2ccc(Br)cc2/C1=C\c1cc2c([nH]1)CCCC2`, 106%.
